Assay results reported in the NIST ThermoML archive (doi:10.1016/j.jct.2015.08.014).

Assay: xn = mol fraction of the nth substance listed
Conditions: 298.15 K, 100 kPa, Liquid; for viscosity: Capillary tube (Ostwald / Ubbelohde) method; for electrical conductivity: Alternating current cell with electrodes

CCCC[N+]1(C)CCCC1.N#CN=C=[N-] [1-butyl-1-methylpyrrolidinium dicyanamide] + O=C1CCCO1
Conditions | viscosity [mPa·s]
x1 = 0.4985 | 11.38
x1 = 0.6954 | 18.62
x1 = 0.9013 | 28.31
x1 = 1 | 33.71

electrical conductivity [S/m]
Conditions | Frequency=0.0005 MHz | Frequency=0.001 MHz | Frequency=0.0015 MHz | Frequency=0.002 MHz | Frequency=0.0025 MHz | Frequency=0.003 MHz | Frequency=0.00347222 MHz | Frequency=0.004 MHz | Frequency=0.00446429 MHz | Frequency=0.005 MHz
x1 = 0.0463 | 1.46 | 1.47 | 1.47 | 1.47 | 1.47 | 1.47 | 1.47 | 1.47 | 1.47 | 1.47
x1 = 0.0987 | 2.2 | 2.2 | 2.21 | 2.21 | 2.21 | 2.21 | 2.21 | 2.21 | 2.21 | 2.21
x1 = 0.1449 | 2.51 | 2.51 | 2.51 | 2.51 | 2.51 | 2.51 | 2.51 | 2.51 | 2.51 | 2.51
x1 = 0.1859 | 2.65 | 2.65 | 2.66 | 2.66 | 2.67 | 2.67 | 2.67 | 2.67 | 2.67 | 2.67
x1 = 0.2493 | 2.606 | 2.608 | 2.61 | 2.61 | 2.611 | 2.611 | 2.612 | 2.612 | 2.612 | 2.612
x1 = 0.3029 | 2.526 | 2.53 | 2.53 | 2.54 | 2.54 | 2.54 | 2.54 | 2.54 | 2.54 | –
x1 = 0.3845 | 2.35 | 2.36 | 2.36 | 2.36 | 2.36 | 2.36 | 2.36 | 2.36 | 2.36 | –
x1 = 0.4985 | 2.08 | 2.08 | 2.08 | 2.08 | 2.08 | 2.08 | 2.08 | 2.08 | 2.08 | –
x1 = 0.6954 | 1.67 | 1.68 | 1.68 | 1.68 | 1.68 | 1.68 | 1.68 | 1.68 | 1.68 | –
x1 = 0.9013 | 1.39 | 1.39 | 1.39 | 1.39 | 1.39 | 1.39 | 1.39 | 1.39 | 1.39 | –
x1 = 1 | 1.315 | 1.316 | 1.316 | 1.316 | 1.317 | 1.317 | 1.317 | 1.317 | 1.317 | –
